Test results from patent publication US8188291B2, “Heteroaryl-substituted carboxamides and their use as pharmaceuticals” (Sanofi-Aventis, priority 2006, dated 2012).
Counter-ions that a name gives are not always drawn.

The compounds below were run on eNOS promoter (assay: Activation of eNOS transcription (eNOS promoter-luciferase reporter gene assay)). Conditions: human endothelial cell line stably transfected with eNOS promoter-luciferase construct; 18 h incubation; determined graphically; read-out: EC50 values of transcription induction ratios (TIR).
Format: cell-based
Experimental: Determination of the Biological Activity A) Activation of eNOS Transcription
Activation of eNOS transcription was measured as described in detail by Li et al., “Activation of protein kinase C alpha and/or epsilon enhances transcription of the human endothelial nitric oxide synthase gene”, Mol. Pharmacol. 53 (1998) 630. Briefly, a 3.5 kB long fragment 5′ of the starting codon of the eNOS gene was cloned, sequenced and cloned in firefly luciferase expression plasmids to monitor activation of the eNOS promoter by reporter gene activity. A human endothelial cell line stable transfected and expressing this promoter-reporter construct was used for compound testing. Cells were incubated for 18 h with the compounds.
All compounds were dissolved in sterile dimethyl sulfoxide (DMSO). A final concentration of 0.5% DMSO in complete medium was allowed. Induction of reporter gene expression in these cells was measured using a standard luciferase assay system (Promega, Cat. No. E150) according to the manufacturer's instructions. Luciferase induction in cells incubated with compounds were compared to those incubated with solvent alone. The ratio of both activities (transcription induction ratio, TIR) was plotted as a function of compound concentration. Typically, TIR values started at low concentrations at a ratio of 1, indicating no compound effect, and extended up to a maximum TIR value TIR(max) which indicates the increase of the eNOS transcription. EC50 values of transcription induction ratios as a function of compound concentration were determined graphically.

Row | EC50 [nM] | SMILES
1 | < 500 | O=C(CCc1ccc(-c2ccc(OC(F)(F)F)cc2)s1)NCC1CC1 [Example 7, N-Cyclopropylmethyl-3-[5-(4-trifluoromethoxy-phenyl)-thiophen-2-yl]-propionamide]
2 | 500 to 5000 | O=C(CCc1ccc(-c2ccc(OC(F)(F)F)cc2)s1)NCC(F)(F)F [Example 8, N-(2,2,2-Trifluoro-ethyl)-3-[5-(4-trifluoromethoxy-phenyl) -thiophen-2-yl]-propionamide]
3 | 500 to 5000 | CC(=O)N1CCN(C(=O)CCc2ccc(-c3ccccc3F)s2)CC1 [Example 20, 1-(4-Acetyl-piperazin-1-yl)-3-[5-(2-fluoro-phenyl) -thiophen-2-yl]-propan-1-one]
4 | 500 to 5000 | O=C(CNc1ccc(-c2ccccc2F)nc1)N1CCCCC1 [Example 89, 2-[6-(2-Fluoro-phenyl)-pyridin-3-ylamino]-1-(piperidin-1-yl)-ethanone trifluoroacetic acid salt]
5 | < 500 | Nc1nc(CCC(=O)N2CCCCC2)ccc1-c1ccccc1 [Example 79, 3-(6-Amino-5-phenyl-pyridin-2-yl)-1-(piperidin-1-yl) -propanone]
6 | 500 to 5000 | O=C(CCc1ccc(-c2ccc(OC(F)(F)F)cc2)s1)Nc1ccccc1 [Example 10, N-Phenyl-3-[5-(4-trifluoromethoxy-phenyl)-thiophen-2-yl]-propionamide]
7 | 500 to 5000 | O=C(CNc1nc(-c2ccc(F)cc2)cs1)N1CCCCC1 [Example 67, 2-[4-(4-Fluoro-phenyl)-thiazol-2-ylamino]-1-(piperidin-1-yl)-ethanone trifluoroacetic acid salt]
8 | 500 to 5000 | CC(C)(C)NC(=O)CSc1nc(-c2ccc(F)cc2)cs1 [Example 100, N-tert-Butyl-2-[4-(4-Fluoro-phenyl)-thiazol-2-ylsulfanyl]-acetamide]
9 | < 500 | O=C(CNc1nc(-c2ccc(F)cc2)cs1)N1CCCC1 [Example 69, 2-[4-(4-Fluoro-phenyl)-thiazol-2-ylamino]-1-(pyrrolidin-1-yl)-ethanone trifluoroacetic acid salt]
10 | 500 to 5000 | O=C(CSc1nc(-c2ccc(F)cc2)cs1)N1CCCC1 [Example 98, 2-[4-(4-Fluoro-phenyl)-thiazol-2-ylsulfanyl]-1-(pyrrolidin-1-yl)-ethanone]
11 | < 500 | O=C(COc1ccc(-c2ccccc2F)nc1)Nc1nccs1 [Example 78, 2-[6-(2-Fluoro-phenyl)-pyridin-3-yloxy]-N-(thiazol-2-yl) -acetamide trifluoroacetic acid salt]
12 | < 500 | O=C(COc1ccc(-c2ccccc2F)nc1)Nc1ccccn1 [Example 77, 2-[6-(2-Fluoro-phenyl)-pyridin-3-yloxy]-N-(pyridin-2-yl) -acetamide trifluoroacetic acid salt]
